In PubChem BioAssay AID1259411 (Chemical Carcinogenesis Research Information System (CCRIS), 2018):
Active and inactive are the calls of the source. How the calls were made is not given here.

Tested on: rodent carcinogenicity bioassays, tumor incidence
Assay: CCRIS carcinogenicity studies
Text: The CCRIS database contains chemical records with carcinogenicity, mutagenicity, tumor promotion, and tumor inhibition test results. It was developed by the National Cancer Institute (NCI). Data are derived from studies cited in primary journals, current awareness tools, NCI reports, and other sources. Test results have been reviewed by experts in carcinogenesis and mutagenesis.
CCRIS provides historical information from the years 1985 - 2011. It is no longer updated.
This is an archive assay for CCRIS carcinogenicity studies.

In the case of `Nc1ncn[nH]1`, the carcinogen call (Species: HAMSTER, Strain/Sex: SYRIAN/FEMALE, Route: ORAL, Dose: 0, 1, 10, 100 PPM IN DIET (TOTAL DOSE: 0; 0.07; 0.6; 6.6 G/KG) FOR 822-856 D (STUDY DURATION: LIFETIME), Dose: 0, 1, 10, 100 PPM IN DIET (TOTAL DOSE: 0; 0.07; 0.6; 6.6 G/KG) FOR 822-856 D (STUDY DURATION: LIFETIME)) is reported as “inactive; negative”, the carcinogen call (Species: HAMSTER, Strain/Sex: SYRIAN/MALE, Route: ORAL, Dose: 0, 1, 10, 100 PPM IN DIET (TOTAL DOSE: 0; 0.08; 0.8; 7.2 G/KG) FOR 885-979 D (STUDY DURATION: LIFETIME), Dose: 0, 1, 10, 100 PPM IN DIET (TOTAL DOSE: 0; 0.08; 0.8; 7.2 G/KG) FOR 885-979 D (STUDY DURATION: LIFETIME)) is reported as “inactive; negative” and the carcinogen call (Species: MOUSE, Route: ORAL, Tumor Site: Type of Lesion: LIVER, THYROID GLAND) is reported as “active; positive”. The carcinogen call (Species: MOUSE, Strain/Sex: NMRI/FEMALE, Route: ORAL, Dose: 0, 1, 10, 100 PPM IN DIET (TOTAL DOSE: 0; 0.17; 1.7; 18.2 G/KG) FOR 970-1027 D (STUDY DURATION: LIFETIME), Dose: 0, 1, 10, 100 PPM IN DIET (TOTAL DOSE: 0; 0.17; 1.7; 18.2 G/KG) FOR 970-1027 D (STUDY DURATION: LIFETIME)) was “inactive; negative”, the carcinogen call (Species: MOUSE, Strain/Sex: NMRI/MALE, Route: ORAL, Dose: 0, 1, 10, 100 PPM IN DIET (TOTAL DOSE: 0; 0.13; 1.3; 13.1 G/KG) FOR 1022-1028 D (STUDY DURATION: LIFETIME), Dose: 0, 1, 10, 100 PPM IN DIET (TOTAL DOSE: 0; 0.13; 1.3; 13.1 G/KG) FOR 1022-1028 D (STUDY DURATION: LIFETIME)) was “inactive; negative” and the carcinogen call (Species: RAT, Route: ORAL, Tumor Site: Type of Lesion: LIVER, THYROID GLAND) was “active; positive”. For the same compound, the carcinogen call (Species: RAT, Route: SUBCUTANEOUS, Tumor Site: Type of Lesion: INJECTION SITE, LIVER, THYROID GLAND, Tumor Site: Type of Lesion: INJECTION SITE, LIVER, THYROID GLAND) was “active; positive”, the carcinogen call (Species: RAT, Strain/Sex: WISTAR/FEMALE, Route: ORAL, Dose: 0, 1, 10, 100 PPM IN DIET (TOTAL DOSE: 0; 0.08; 0.8; 7.9 G/KG) FOR 1140-1143 D (STUDY DURATION: LIFETIME), Dose: 0, 1, 10, 100 PPM IN DIET (TOTAL DOSE: 0; 0.08; 0.8; 7.9 G/KG) FOR 1140-1143 D (STUDY DURATION: LIFETIME), Tumor Site: Type of Lesion: THYROID GLAND: MALIGNANT TUMOR) was “active; positive” and the carcinogen call (Species: RAT, Strain/Sex: WISTAR/MALE, Route: ORAL, Dose: 0, 1, 10, 100 PPM IN DIET (TOTAL DOSE: 0; 0.06; 0.6; 5.8 G/KG) FOR 1137-1143 D (STUDY DURATION: LIFETIME), Dose: 0, 1, 10, 100 PPM IN DIET (TOTAL DOSE: 0; 0.06; 0.6; 5.8 G/KG) FOR 1137-1143 D (STUDY DURATION: LIFETIME), Tumor Site: Type of Lesion: THYROID GLAND: MALIGNANT TUMOR) was “active; positive”.

In the case of `O=[N+]([O-])c1ccc2ccc3ccc([N+](=O)[O-])c4ccc1c2c34`, the carcinogen call (Species: RAT, Strain/Sex: F344/MALE, Route: SUBCUTANEOUS, Dose: 0, 0.002, 0.02 MG 2/WK FOR 10 WK (STUDY DURATION: 320 D), Dose: 0, 0.002, 0.02 MG 2/WK FOR 10 WK (STUDY DURATION: 320 D), Tumor Site: Type of Lesion: INJECTION SITE: SARCOMA) is reported as “active; positive”, the carcinogen call (Species: RAT, Strain/Sex: STRAIN CD/FEMALE, Route: INTRAGASTRIC, Dose: 0, 10 UMOL IN DMSO 3/WK FOR 4 WK (TOTAL DOSE: 16 UMOL/RAT) (STUDY DURATION: 78 WK), Tumor Site: Type of Lesion: ADRENAL GLAND: PHEOCHROMOCYTOMA, CORTICAL ADENOMA, PITUITARY GLAND: CARCINOMA, LIVER: HYPERPLASTIC NODULES, Tumor Site: Type of Lesion: ADRENAL GLAND: PHEOCHROMOCYTOMA, CORTICAL ADENOMA, PITUITARY GLAND: CARCINOMA, LIVER: HYPERPLASTIC NODULES) is reported as “active; positive” and the carcinogen call (Species: RAT, Strain/Sex: STRAIN CD/FEMALE, Route: INTRAGASTRIC, Dose: 0, 10 UMOL IN DMSO 3/WK FOR 4 WK (TOTAL DOSE: 16 UMOL/RAT) (STUDY DURATION: 78 WK), Tumor Site: Type of Lesion: MAMMARY GLAND: ADENOCARCINOMA, FIBROADENOMA) is reported as “active; positive”. The carcinogen call (Species: RAT, Strain/Sex: STRAIN CD/FEMALE, Route: INTRAPERITONEAL, Dose: 0, 10 UMOL IN DMSO 3/WK FOR 4 WK (TOTAL DOSE: 16 UMOL/RAT) (STUDY DURATION: 78 WK), Tumor Site: Type of Lesion: HEMATOPOIETIC SYSTEM: HISTIOCYTOMA, LEUKEMIA) was “active; positive”, the carcinogen call (Species: RAT, Strain/Sex: STRAIN CD/FEMALE, Route: INTRAPERITONEAL, Dose: 0, 10 UMOL IN DMSO 3/WK FOR 4 WK (TOTAL DOSE: 16 UMOL/RAT) (STUDY DURATION: 78 WK), Tumor Site: Type of Lesion: MAMMARY GLAND: ADENOCARCINOMA) was “active; positive” and the carcinogen call (Species: RAT, Strain/Sex: STRAIN-CD/FEMALE, Route: SUBCUTANEOUS, Dose: 0, 6.3 UMOL (TOTAL DOSE) ADMINISTERED OVER 8 WK BEGINNING ON DAY OF BIRTH (STUDY DURATION: 67 WK), Tumor Site: Type of Lesion: INTEGUMENTARY SYSTEM: MALIGNANT FIBROUS HISTIOCYTOMA, HEMATOPOIETIC SYSTEM: LEUKEMIA) was “active; positive”.

In the case of `CCCCC(=O)O[C@H]1CC[C@H]2[C@@H]3CCc4cc(O)ccc4[C@H]3CC[C@]12C`, the carcinogen call (Species: RAT, Strain/Sex: STRAIN-CD/MALE, Route: SUBCUTANEOUS, Dose: 0, 1 MG IN CASTOR OIL 1/4 WK FOR LIFE (STUDY DURATION: LIFE), Tumor Site: Type of Lesion: MAMMARY GLAND: TUMOR) is reported as “active; positive”.

`O=Nc1ccc(Nc2ccccc2)cc1` was tested, and the carcinogen call (Species: MOUSE, Strain/Sex: B6C3F1/FEMALE, Route: ORAL, Dose: 0, 4254, 9000 PPM IN DIET, TWA, Dose: 0, 4254, 9000 PPM IN DIET, TWA) was “inactive; negative”, the carcinogen call (Species: MOUSE, Strain/Sex: B6C3F1/MALE, Route: ORAL, Dose: 0, 4254, 9000 PPM IN DIET, TWA, Dose: 0, 4254, 9000 PPM IN DIET, TWA, Tumor Site: Type of Lesion: LIVER: HEPATOCELLULAR ADENOMA OR CARCINOMA) was “active; positive” and the carcinogen call (Species: RAT, Strain/Sex: F344/FEMALE, Route: ORAL, Dose: 0, 2500, 5000 PPM IN DIET, Dose: 0, 2500, 5000 PPM IN DIET) was “inactive; negative”. The carcinogen call (Species: RAT, Strain/Sex: F344/MALE, Route: ORAL, Dose: 0, 2500, 5000 PPM IN DIET, Dose: 0, 2500, 5000 PPM IN DIET, Tumor Site: Type of Lesion: LIVER: HEPATOCELLULAR CARCINOMA OR NEOPLASTIC NODULE) was “active; positive”.

`O=S(=O)(O)NC1CCCCC1` was tested, and the carcinogen call (Species: MONKEY, Strain/Sex: CYNOMOLGUS, RHESUS, AFRICAN GREEN/MALE, FEMALE, Route: ORAL, Dose: 0, 100, 500 MG/KG IN DIET FOR 24 YR (STUDY DURATION: 24 YR), Dose: 0, 100, 500 MG/KG IN DIET FOR 24 YR (STUDY DURATION: 24 YR)) was “inactive; negative”, the carcinogen call (Species: RAT, Strain/Sex: ALBINO/MALE,FEMALE, Route: SUBCUTANEOUS, Dose: 5, 15% IN AQ SOLN 3/WK FOR 85 OR 107 WK, Tumor Site: Type of Lesion: INJECTION SITE: FIBROSARCOMA) was “active; positive” and the carcinogen call (Species: RAT, Strain/Sex: SPRAGUE-DAWLEY/MALE,FEMALE, Route: ORAL, Dose: 2, 5% IN DIET PRENATALLY AND FOR LIFE) was “inactive; negative”.

`CC(C)NCC(O)c1ccc2ccccc2c1` (centres undefined) was tested, and the carcinogen call (Species: MOUSE, Route: ORAL, Tumor Site: Type of Lesion: THYROID GLAND) was “active; positive”.

For `CCOC(=O)C(C)(C)Oc1ccc(Cl)cc1`, the carcinogen call (Species: MOUSE, Strain/Sex: CD-1/MALE,FEMALE (NEONATAL) (24-28/GROUP), Route: ORAL (GAVAGE), Dose: 0, 100, 350, 500 MG/KG BW ON D 9 AND 16 OF LIFE (STUDY DURATION: 1 YR)) was “inactive; negative”, the carcinogen call (Species: Mouse, Strain/Sex: Nontransgenic rasH2/Female (15/group), Route: Oral, Dose: 0, 250 mg/kg/day (Test material solvent: 0.5% (w/w) hydroxymethylcellulose in water), daily, by gavage for 27 wk, study, Dose: 0, 250 mg/kg/day (Test material solvent: 0.5% (w/w) hydroxymethylcellulose in water), daily, by gavage for 27 wk, study) was “inactive; negative (slight increase in incidence of various neoplasms (harderian gland, lu” and the carcinogen call (Species: Mouse, Strain/Sex: Nontransgenic rasH2/Male (15/group), Route: Oral, Dose: 0, 200 mg/kg/day (Test material solvent: 0.5% (w/w) hydroxymethylcellulose in water), daily, by gavage for 27 wk, study, Dose: 0, 200 mg/kg/day (Test material solvent: 0.5% (w/w) hydroxymethylcellulose in water), daily, by gavage for 27 wk, study, Tumor Site: Type of Lesion: Liver) was “inactive; negative (hepatocellular neoplasms observed in matched study of male transgenic”. For the same compound, the carcinogen call (Species: RAT, Strain/Sex: F344/MALE, Route: ORAL, Dose: 0.5% IN DIET FOR UP TO 28 MO, Tumor Site: Type of Lesion: LIVER: HEPATOCELLULAR CARCINOMA) was “active; positive” and the carcinogen call (Species: RAT, Strain/Sex: SPRAGUE-DAWLEY/MALE,FEMALE, Route: ORAL, Dose: 1500, 4500, 9000 PPM IN DIET, Dose: 1500, 4500, 9000 PPM IN DIET, Tumor Site: Type of Lesion: LIVER) was “active; positive”.
